Assay results taken from ChEMBL document CHEMBL1127917, “The phosphonate analog of 5-methylthioribose 1--phosphate” (Bioorg Med Chem Lett, 1994).
Active and inactive are the calls of the source. The calls are words filed in the database; no cut-off is given here.

Test system: Klebsiella pneumoniae
Assay: Tested for inhibition of oxygen uptake by the compound included in an extract of Klebsiella pneumoniae along with substrate 1 at the dose of 0.8 mM; No inhibition
Assay type: functional, organism-based

CSCC1OC(CP(=O)(O)O)[C@H](O)[C@@H]1O (stereo partly specified)
Activity: inactive
